Reference: PubChem BioAssay AID2060613 (Molecular Pharmacology Branch, DTP, NCI, 2025)

Test system: 233499-124-R-J3-PDC complex spheroid viability
Test: Anticancer human tumor 233499-124-R-J3-PDC patient-derived colon adenocarcinoma cell line growth inhibition [CLK]
Details: for IC50: curve of first compound; for viability, T/C: stronger effect = lower value
Procedure, shortened: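 Multi-cell-type spheroids combined patient-derived tumor cells with HUVEC endothelial cells and human mesenchymal stem cells. Paired agents were dosed in half-log steps down from about clinical Cmax, or from 10 microM where Cmax was unknown.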

[1] = second compound 0.0316 µM, first compound 0.0316 µM
[2] = second compound 0.0316 µM, first compound 0.1 µM
[3] = second compound 0.0316 µM, first compound 0.316 µM
[4] = second compound 0.0316 µM, first compound 1 µM
[5] = second compound 0.1 µM, first compound 0.0316 µM
[6] = second compound 0.1 µM, first compound 0.1 µM
[7] = second compound 0.1 µM, first compound 0.316 µM
[8] = second compound 0.1 µM, first compound 1 µM
[9] = second compound 0.316 µM, first compound 0.0316 µM
[10] = second compound 0.316 µM, first compound 0.1 µM
[11] = second compound 0.316 µM, first compound 0.316 µM
[12] = second compound 0.316 µM, first compound 1 µM
[13] = second compound 1 µM, first compound 0.0316 µM
[14] = second compound 1 µM, first compound 0.1 µM
[15] = second compound 1 µM, first compound 0.316 µM
[16] = second compound 1 µM, first compound 1 µM
[17] = second compound 3.16 µM, first compound 0.0316 µM
[18] = second compound 3.16 µM, first compound 0.1 µM
[19] = second compound 3.16 µM, first compound 0.316 µM
[20] = second compound 3.16 µM, first compound 1 µM
[21] = second compound 10 µM, first compound 0.0316 µM
[22] = second compound 10 µM, first compound 0.1 µM
[23] = second compound 10 µM, first compound 0.316 µM
[24] = second compound 10 µM, first compound 1 µM
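Note: spheroids exposed to the drug combinations for seven days.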
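Throughout, for viability, T/C: percent viability relative to DMSO vehicle control wells taken as 100%.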

Q: Which results are given for `COC1C=CCC(C)C(C)S(=O)(=O)NC(=O)c2ccc3c(c2)N(CC2CCC21)CC1(CCCc2cc(Cl)ccc21)CO3` (centres undefined) + CNC(=O)c1ccc(Nc2nc(OC3CCCC3)c3c(-c4ccc5nc(C)oc5c4)c[nH]c3n2)c(OC)c1?
A: IC50 (second compound 0.0316 µM): 4620 nM; IC50 (second compound 0.1 µM): 135 nM; IC50 (second compound 0.316 µM): 135 nM; IC50 (second compound 1 µM): 113 nM; IC50 (second compound 3.16 µM): 59.5 nM; IC50 (second compound 10 µM): 129 nM; viability, T/C [1]: 90.8%; viability, T/C [2]: 93.5%; viability, T/C [3]: 92.5%; viability, T/C [4]: 82.2%; viability, T/C (second compound 0.0316 µM, first compound 3.16 µM): 71.2%; viability, T/C (second compound 0.0316 µM, first compound 10 µM): 9.78%; viability, T/C [5]: 83.2%; viability, T/C [6]: 57.4%; viability, T/C [7]: 29.4%; viability, T/C [8]: 19%; viability, T/C (second compound 0.1 µM, first compound 3.16 µM): 33.8%; viability, T/C (second compound 0.1 µM, first compound 10 µM): 11.7%; viability, T/C [9]: 79%; viability, T/C [10]: 61%; viability, T/C [11]: 19%; viability, T/C [12]: 9.42%; viability, T/C (second compound 0.316 µM, first compound 3.16 µM): 8.88%; viability, T/C (second compound 0.316 µM, first compound 10 µM): 9.03%; viability, T/C [13]: 81.2%; viability, T/C [14]: 51.6%; viability, T/C [15]: 29.8%; viability, T/C [16]: 10.1%; viability, T/C (second compound 1 µM, first compound 3.16 µM): 9.03%; viability, T/C (second compound 1 µM, first compound 10 µM): 6.79%; viability, T/C [17]: 69.2%; viability, T/C [18]: 33.6%; viability, T/C [19]: 19.7%; viability, T/C [20]: 12.3%; viability, T/C (second compound 3.16 µM, first compound 3.16 µM): 7%; viability, T/C (second compound 3.16 µM, first compound 10 µM): 7.88%; viability, T/C [21]: 60.6%; viability, T/C [22]: 59.5%; viability, T/C [23]: 17.5%; viability, T/C [24]: 11.5%; viability, T/C (second compound 10 µM, first compound 3.16 µM): 7.72%; viability, T/C (second compound 10 µM, first compound 10 µM): 5.45%

Q: For `CCc1c2c(nc3ccc(O)cc13)-c1cc3c(c(=O)n1C2)COC(=O)[C@]3(O)CC` + CNC(=O)c1ccc(Nc2nc(OC3CCCC3)c3c(-c4ccc5nc(C)oc5c4)c[nH]c3n2)c(OC)c1, which IC50 (second compound 0.0316 µM) is on record?
A: 114 nM

Q: What about the IC50 (second compound 0.1 µM) of the same molecule?
A: 34.5 nM

Q: And the IC50 (second compound 0.316 µM)?
A: 15.8 nM

Q: And the IC50 (second compound 1 µM)?
A: 15.2 nM

Q: And the IC50 (second compound 3.16 µM)?
A: 4.68 nM

Q: What about the IC50 (second compound 10 µM) of the same molecule?
A: < 3.16 nM

Q: And the viability, T/C (second compound 0.0316 µM, first compound 0.00316 µM)?
A: 76%

Q: What about the viability, T/C (second compound 0.0316 µM, first compound 0.01 µM) of the same molecule?
A: 56.8%

Q: What about the viability, T/C [1] of the same molecule?
A: 55%

Q: And the viability, T/C [2]?
A: 61.8%

Q: What about the viability, T/C [3] of the same molecule?
A: 34.7%

Q: What about the viability, T/C [4] of the same molecule?
A: 18.3%

Q: And the viability, T/C (second compound 0.1 µM, first compound 0.00316 µM)?
A: 57.5%

Q: What about the viability, T/C (second compound 0.1 µM, first compound 0.01 µM) of the same molecule?
A: 53.8%

Q: What about the viability, T/C [5] of the same molecule?
A: 47.3%

Q: What about the viability, T/C [6] of the same molecule?
A: 46.6%

Q: And the viability, T/C [7]?
A: 31.1%

Q: What about the viability, T/C [8] of the same molecule?
A: 11.6%

Q: And the viability, T/C (second compound 0.316 µM, first compound 0.00316 µM)?
A: 65.5%

Q: What about the viability, T/C (second compound 0.316 µM, first compound 0.01 µM) of the same molecule?
A: 50%

Q: What about the viability, T/C [9] of the same molecule?
A: 38.4%

Q: And the viability, T/C [10]?
A: 45.1%

Q: And the viability, T/C [11]?
A: 19.6%

Q: What about the viability, T/C [12] of the same molecule?
A: 11.3%

Q: And the viability, T/C (second compound 1 µM, first compound 0.00316 µM)?
A: 63%

Q: And the viability, T/C (second compound 1 µM, first compound 0.01 µM)?
A: 49.8%

Q: And the viability, T/C [13]?
A: 40.2%

Q: And the viability, T/C [14]?
A: 53.6%

Q: And the viability, T/C [15]?
A: 12.3%

Q: And the viability, T/C [16]?
A: 5.66%

Q: What about the viability, T/C (second compound 3.16 µM, first compound 0.00316 µM) of the same molecule?
A: 50.9%

Q: What about the viability, T/C (second compound 3.16 µM, first compound 0.01 µM) of the same molecule?
A: 48.6%

Q: And the viability, T/C [17]?
A: 25.6%

Q: And the viability, T/C [18]?
A: 18%

Q: What about the viability, T/C [19] of the same molecule?
A: 6.64%

Q: And the viability, T/C [20]?
A: 5.12%

Q: And the viability, T/C (second compound 10 µM, first compound 0.00316 µM)?
A: 51%

Q: What about the viability, T/C (second compound 10 µM, first compound 0.01 µM) of the same molecule?
A: 32.3%

Q: What about the viability, T/C [21] of the same molecule?
A: 35.1%

Q: What about the viability, T/C [22] of the same molecule?
A: 17.8%

Q: And the viability, T/C [23]?
A: 8.94%

Q: What about the viability, T/C [24] of the same molecule?
A: 2.94%
